In PubChem BioAssay (NCI):
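The compound was tested at five concentrations on cells cultured in 96-well plates, with a 48-hour exposure period. Abbreviation: GI50, concentration required for 50% inhibition of growth. TGI is the concentration that stops growth completely.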

Key:
Experiment in all cases: inhibition of tumour cell growth, NCI panel, 48 h
[1] = system: SK-MEL-28 melanoma
[2] = system: NCI-H23 lung
[3] = system: SK-OV-3 ovarian
[4] = system: DU-145 prostate
[5] = system: MALME-3M melanoma
[6] = system: CAKI-1 renal
[7] = system: NCI-H226 lung
[8] = system: OVCAR-5 ovarian
[9] = system: HS 578T breast
[10] = system: UACC-62 melanoma
[11] = system: EKVX NSCLC
[12] = system: SNB-19 CNS
[13] = system: BT-549 breast
[14] = system: A498 renal
[15] = system: SK-MEL-5 melanoma
[16] = system: UACC-257 melanoma
[17] = system: T-47D breast
[18] = system: IGROV1 ovarian
[19] = system: MCF7 breast
[20] = system: RXF 393 renal
[21] = system: HCT-15 colon
[22] = system: KM12 colon
[23] = system: HOP-62 NSCLC
[24] = system: COLO 205 colon
[25] = system: MOLT-4 leukemia
[26] = system: PC-3 prostate
[27] = system: NCI-H522 lung
[28] = system: RPMI-8226 leukemia
[29] = system: ACHN renal
[30] = system: K-562 leukemia
[31] = system: NCI-H460 lung
[32] = system: NCI/ADR-RES ovarian
[33] = system: CCRF-CEM leukemia
[34] = system: SR leukemia
[35] = system: SF-539 CNS
[36] = system: SK-MEL-2 melanoma
[37] = system: HCC-2998 colon
[38] = system: SN12C renal
[39] = system: MDA-MB-231 breast
[40] = system: HCT-116 colon
[41] = system: 786-0 renal
[42] = system: TK-10 renal
[43] = system: UO-31 renal
[44] = system: U251 CNS
[45] = system: OVCAR-4 ovarian
[46] = system: SNB-75 CNS
[47] = system: OVCAR-3 ovarian
[48] = system: HL-60(TB) leukemia
[49] = system: OVCAR-8 ovarian
[50] = system: SW-620 colon
[51] = system: SF-295 CNS
[52] = system: LOX IMVI melanoma
[53] = system: SF-268 CNS
[54] = system: HOP-92 NSCLC
[55] = system: A549 NSCLC
[56] = system: HT29 colon
[57] = system: M14 melanoma
[58] = system: MDA-MB-435

For `CCCCCCCCCCCCCCCCCC1=NCCN1C(=O)OCCO`, the GI50 [1] was 5.92 µM, the TGI [1] was 24.5 µM and the GI50 [2] was 5.64 µM. It also gave a TGI [2] greater than 100 µM, a GI50 [3] of 2.5 µM and a TGI [3] of 7.04 µM. For the same compound, the GI50 [4] was 1.84 µM, the TGI [4] was 3.37 µM and the GI50 [5] was 12.9 µM. It also gave a TGI [5] of 42.9 µM, a GI50 [6] of 1.75 µM and a TGI [6] of 3.83 µM. The GI50 [7] was 6.24 µM, the TGI [7] was 45.2 µM and the GI50 [8] was 3.35 µM. The TGI [8] was 26.4 µM, the GI50 [9] was 4.08 µM and the TGI [9] was greater than 100 µM. It also gave a GI50 [10] of 1.87 µM, a TGI [10] of 3.46 µM and a GI50 [11] of 1.75 µM. For the same compound, the TGI [11] was 4.24 µM, the GI50 [12] was 3.39 µM and the TGI [12] was 12.9 µM. The GI50 [13] was 3.19 µM, the TGI [13] was 18.3 µM and the GI50 [14] was 9.29 µM. For the same compound, the TGI [14] was 56.7 µM, the GI50 [15] was 2.93 µM and the TGI [15] was 10.3 µM. For the same compound, the GI50 [16] was 2.28 µM, the TGI [16] was 5.68 µM and the GI50 [17] was 2.89 µM. The TGI [17] was 9.48 µM.
Work on `COc1cc(/C=C2\C(=O)Nc3ccc(N(C)C)cc32)cc(OC)c1OC` yielded a GI50 [1] of 5.87 µM, a TGI [1] greater than 100 µM and a GI50 [2] of 3.07 µM. It also gave a TGI [2] greater than 100 µM, a GI50 [3] of 3.55 µM and a TGI [3] of 30.4 µM. For the same compound, the GI50 [4] was 3.08 µM, the TGI [4] was greater than 29.3 µM and the GI50 [18] was 1.5 µM. For the same compound, the TGI [18] was 5.43 µM, the GI50 [19] was 1.51 µM and the TGI [19] was greater than 100 µM. It also gave a GI50 [20] of 0.24 µM, a TGI [20] of 1.28 µM and a GI50 [21] of 1.23 µM. It also gave a TGI [21] of 49.8 µM, a GI50 [5] of 3.23 µM and a TGI [5] greater than 30.2 µM. It also gave a GI50 [6] of 5.78 µM, a TGI [6] greater than 80.5 µM and a GI50 [22] of 1.69 µM. The TGI [22] was 13.2 µM, the GI50 [23] was 8.48 µM and the TGI [23] was 50.2 µM. The GI50 [24] was 1.89 µM, the TGI [24] was 4.73 µM and the GI50 [7] was 14.2 µM. For the same compound, the TGI [7] was greater than 100 µM, the GI50 [25] was 2.87 µM and the TGI [25] was greater than 30.9 µM. The GI50 [26] was 1.73 µM, the TGI [26] was greater than 100 µM and the GI50 [27] was 1.47 µM. For the same compound, the TGI [27] was 5.75 µM, the GI50 [28] was 1.11 µM and the TGI [28] was 4.14 µM. For the same compound, the GI50 [29] was 4.72 µM, the TGI [29] was 98.4 µM and the GI50 [8] was 5.86 µM. It also gave a TGI [8] greater than 80.2 µM, a GI50 [30] of 0.58 µM and a TGI [30] greater than 25.6 µM. It also gave a GI50 [31] of 2.98 µM, a TGI [31] greater than 29.1 µM and a GI50 [32] of 1.93 µM. It also gave a TGI [32] of 6.27 µM, a GI50 [33] of 2.28 µM and a TGI [33] of 10.1 µM. The GI50 [34] was 0.34 µM, the TGI [34] was 2.4 µM and the GI50 [35] was 2.44 µM. For the same compound, the TGI [35] was 7.88 µM, the GI50 [36] was 2.77 µM and the TGI [36] was 8.31 µM. It also gave a GI50 [9] of 3.89 µM, a TGI [9] greater than 100 µM and a GI50 [37] of 8.46 µM. The TGI [37] was 46.4 µM, the GI50 [10] was 2.5 µM and the TGI [10] was greater than 100 µM. For the same compound, the GI50 [38] was 4.26 µM, the TGI [38] was 42.3 µM and the GI50 [39] was 4.26 µM. The TGI [39] was greater than 63.8 µM, the GI50 [40] was 2.94 µM and the TGI [40] was greater than 43.9 µM. It also gave a GI50 [41] of 4.3 µM, a TGI [41] of 33.3 µM and a GI50 [11] of 5.25 µM. The TGI [11] was greater than 100 µM, the GI50 [12] was 3.67 µM and the TGI [12] was greater than 100 µM. For the same compound, the GI50 [13] was 2.49 µM, the TGI [13] was 14.5 µM and the GI50 [42] was 6.42 µM. The TGI [42] was 40.6 µM, the GI50 [43] was 3.17 µM and the TGI [43] was greater than 87.4 µM. For the same compound, the GI50 [44] was 3.1 µM, the TGI [44] was 14.6 µM and the GI50 [45] was 3.7 µM. The TGI [45] was greater than 100 µM, the GI50 [46] was 1.74 µM and the TGI [46] was 6.33 µM. It also gave a GI50 [47] of 1.41 µM, a TGI [47] of 4.29 µM and a GI50 [14] of 4.67 µM. The TGI [14] was greater than 100 µM, the GI50 [48] was 1.35 µM and the TGI [48] was 5.8 µM. It also gave a GI50 [49] of 4.46 µM, a TGI [49] greater than 79.4 µM and a GI50 [50] of 2.7 µM. It also gave a TGI [50] greater than 100 µM, a GI50 [15] of 2.75 µM and a TGI [15] of 24.6 µM. For the same compound, the GI50 [16] was 6.73 µM, the TGI [16] was greater than 100 µM and the GI50 [51] was 3.16 µM. The TGI [51] was greater than 100 µM, the GI50 [52] was 3.2 µM and the TGI [52] was 18.6 µM. It also gave a GI50 [17] of 2.49 µM, a TGI [17] greater than 31.3 µM and a GI50 [53] of 3.92 µM. It also gave a TGI [53] of 33.1 µM, a GI50 [54] of 3.17 µM and a TGI [54] of 36.3 µM. For the same compound, the GI50 [55] was 3.86 µM, the TGI [55] was 35.9 µM and the GI50 [56] was 2.11 µM. It also gave a TGI [56] greater than 100 µM.
`COC(=O)C1CCc2sc3ncnc(Nc4cn[nH]c4C(=O)Nc4ccc(CN5CCN(C)CC5)cc4)c3c21` (stereo not drawn) gave a GI50 [2] of 0.506 µM, a TGI [2] of 2.67 µM and a GI50 [3] of 0.132 µM. For the same compound, the TGI [3] was greater than 100 µM, the GI50 [18] was 0.447 µM and the TGI [18] was greater than 100 µM. It also gave a GI50 [20] of 0.244 µM, a TGI [20] of 0.891 µM and a GI50 [21] of 0.423 µM. The TGI [21] was greater than 100 µM, the GI50 [5] was 1.98 µM and the TGI [5] was 3.78 µM. It also gave a GI50 [22] of 0.207 µM, a TGI [22] of 2.63 µM and a GI50 [23] of 0.453 µM. For the same compound, the TGI [23] was 19.5 µM, the GI50 [7] was 0.588 µM and the TGI [7] was greater than 100 µM. For the same compound, the GI50 [25] was 0.324 µM, the TGI [25] was 0.991 µM and the GI50 [27] was 0.304 µM. It also gave a TGI [27] of 1.63 µM, a GI50 [28] of 1.41 µM and a TGI [28] of 4.21 µM. For the same compound, the GI50 [29] was 0.232 µM, the TGI [29] was 10.1 µM and the GI50 [30] was 0.254 µM. The TGI [30] was 4.15 µM, the GI50 [31] was 0.331 µM and the TGI [31] was 1.49 µM. For the same compound, the GI50 [32] was 3.27 µM, the TGI [32] was greater than 100 µM and the GI50 [33] was 0.29 µM. It also gave a TGI [33] of 2.98 µM, a GI50 [34] of 0.285 µM and a TGI [34] of 0.815 µM. The GI50 [35] was 0.371 µM, the TGI [35] was 1.49 µM and the GI50 [36] was 0.692 µM. For the same compound, the TGI [36] was 3.48 µM, the GI50 [9] was 0.54 µM and the TGI [9] was 12.7 µM. For the same compound, the GI50 [37] was 1.82 µM, the TGI [37] was 31.5 µM and the GI50 [10] was 1.36 µM. It also gave a TGI [10] of 6.59 µM, a GI50 [38] of 0.345 µM and a TGI [38] greater than 100 µM. It also gave a GI50 [11] of 0.838 µM, a TGI [11] of 14 µM and a GI50 [12] of 0.712 µM. It also gave a TGI [12] greater than 100 µM, a GI50 [13] of 0.899 µM and a TGI [13] of 6.02 µM. The GI50 [42] was 2.31 µM, the TGI [42] was 17.8 µM and the GI50 [43] was 0.455 µM. The TGI [43] was 9.51 µM, the GI50 [45] was 0.906 µM and the TGI [45] was greater than 100 µM. The GI50 [46] was 0.0684 µM, the TGI [46] was 2.87 µM and the GI50 [47] was 0.334 µM. The TGI [47] was 2.04 µM, the GI50 [57] was 0.708 µM and the TGI [57] was 2.14 µM. The GI50 [14] was 0.218 µM, the TGI [14] was 1.8 µM and the GI50 [48] was 1.68 µM. The TGI [48] was 3.87 µM, the GI50 [58] was 1.06 µM and the TGI [58] was 3.38 µM. The GI50 [49] was 0.711 µM, the TGI [49] was 75.1 µM and the GI50 [50] was 0.354 µM. It also gave a TGI [50] of 1.58 µM, a GI50 [15] of 0.58 µM and a TGI [15] of 2.56 µM. The GI50 [16] was 1.19 µM, the TGI [16] was 2.8 µM and the GI50 [51] was 0.659 µM. The TGI [51] was 17.1 µM, the GI50 [52] was 0.405 µM and the TGI [52] was 1.79 µM. It also gave a GI50 [17] of 0.957 µM, a TGI [17] of 11.6 µM and a GI50 [53] of 0.666 µM. The TGI [53] was 2.63 µM, the GI50 [54] was 1.14 µM and the TGI [54] was 5.88 µM. The GI50 [56] was 0.619 µM and the TGI [56] was 2.91 µM.
